Experiment: X-ray diffraction of the gas hydrates formed
Assay type: physicochemical
Conditions: systems 1-3; combination of structure I and structure II hydrate in all three systems
Source text: FIG. 17(a) illustrates the X-ray diffraction pattern of the gas hydrates formed in systems 1-3.
The diffraction studies indicate that regardless of the nature of the AA used the XRD pattern of the solids formed are very similar indicating essentially the same hydrate mixtures are formed in each of systems 1-3. In short, there is a combination of structure I and structure II hydrate formed in all three systems considered.

Cc1c(C)c2c(c(C)c1OC(=O)CCC(=O)O)CCC(C)(CCCC(C)CCCC(C)CCCC(C)CCCC(C)C)O2 (stereo not shown) [tocopherol succinate]
effect on structure of the hydrate formed (XRD pattern): does not alter the structure of the hydrate formed
